Usually IC50 stands for the point on the concentration scale where inhibition reaches its midpoint.

Results on ten compounds are retold here after article PMC11831592, “Repurposing Linezolid in Conjunction with Histone Deacetylase Inhibitor Access in the Realm of Glioblastoma Therapies” (Journal of Medicinal Chemistry, 2025).

For data set [1], the system named is A172-R TMZ-resistant GBM cell line. Briefly: MTT cytotoxicity assay, A172-R. The data set is classed as cell-based. The settings on record: Homo sapiens, 72 h. How it is done:
(§1) We utilized linezolid as the structural foundation to confirm the cytotoxicity of linezolid-conjugated functional domains against glioblastoma (GBM). We combined it with the binding structures of anti-histone deacetylases (HDACs) (denoted as compounds 1–5 and 11–14), antitubulin (compound 6), anticyclooxygenase (COX) (compound 7), and anti-heat shock protein 90 (Hsp90) (compounds 8–10). These constructs were then administered to TMZ-resistant GBM cell lines A172R and PT#3R at concentrations ranging from 0 to 80 μM over 72 h. The cytotoxic effects of these compounds were assessed using the MTT assay (Table 1 and Supporting Information IV). […] Given the remarkable cytotoxicity of compound 1 on both A172-R and PT#3-R TMZ-resistant cells, this study subsequently focused on compound 1 for further in-depth investigation and mechanistic exploration. To validate that the cytotoxic effect of compound 1 on GBM is not attributed to linezolid alone, we separately treated the TMZ-resistant GBM cell line PT#3-R with compound 1 and linezolid. […] This confirms that the cytotoxicity of compound 1 against GBM is primarily attributable to the inhibitory structure of linezolid-conjugated HDAC (Figure 2A). Furthermore, we compared the cytotoxic effects of compound 1 on various wild-type brain tumor cell lines, including U87MG, PT#3, LN229 GBM cells, and CT-2A mouse astrocyte cell line as well as TMZ-resistant variants cell lines, including U87MG-R, PT#3-R, CT-2A-R, and T98G (MGMT-positive). […] Additionally, we further confirmed the efficacy of compound 1 in GBM treatment.
(§2) MTT assay was employed to evaluate the cytotoxicity of the synthesized compound against resistant GBM cells. The MTT (3-(4,5-dimethylthiazol-2-yl)-2,5-diphenyltetrazolium bromide, catalog no. AM0818-0005) powder was purchased from BIONOVAS (Ontario, Canada). The MTT was prepared at 10 mg/mL stock with ultrapure water and then stored at −20 °C. All cells were seeded 2.5 × 10^4 per well in the 24-well plate for 24 h, followed by treating at different concentrations of compounds for 72 h. Before the experiment, the MTT stock was 10-fold diluted with the culture medium and then incubated with cells for 30 min. After the incubation, the MTT medium was discarded and added 300 μL of dimethyl sulfoxide (DMSO, cat. no. D2650, Sigma-Aldrich, MO, USA) to dissolve the cells. Finally, 100 μL of the mixture was transferred to measure the OD 595 nm absorbance.

Data set [2] concerns PT#3-R TMZ-resistant GBM cell line. Briefly: cells. The data set is classed as cell-based. The settings on record: MTT; for IC50: Homo sapiens, 72 h. The procedure: The cytotoxic effects of these compounds were assessed using the MTT assay (Table 1 and Supporting Information IV).
as §2, with “All cells were seeded 2.5 × 10^4 per well in the 24-well plate for 24 h, followed by treating at different concentrations of compounds for 72 h.” left out, “cells.” for “cells. Finally, 100 μL of the mixture was transferred to measure the OD 595 nm absorbance.”

In the next data set the target is T1, HDAC1 (Homo sapiens, UniProt Q13547).
T1 construct: purchased Reaction Biology Corporation, Malvern, PA (contract assay service)
Briefly: HDAC enzyme inhibition assay, HDAC1. The data set is classed as biochemical. The settings on record: 10-dose, 3-fold serial dilution starting at 10 μM. The procedure: (§3) Enzyme inhibition assays were performed by the Reaction Biology Corporation, Malvern, PA (http://www.reactionbiology.com).

In a further data set the target is T2, HDAC2 (Homo sapiens, UniProt Q92769).
T2 construct: purchased Reaction Biology Corporation, Malvern, PA (contract assay service)
Briefly: HDAC enzyme inhibition assay, HDAC2. The data set is classed as biochemical. The settings on record: 10-dose, 3-fold serial dilution starting at 10 μM. The procedure:
as §3

In a further data set the target is T3, HDAC6 (Homo sapiens, UniProt Q9UBN7).
T3 construct: purchased Reaction Biology Corporation, Malvern, PA (contract assay service)
T3 sequence (Q9UBN7 1-1215): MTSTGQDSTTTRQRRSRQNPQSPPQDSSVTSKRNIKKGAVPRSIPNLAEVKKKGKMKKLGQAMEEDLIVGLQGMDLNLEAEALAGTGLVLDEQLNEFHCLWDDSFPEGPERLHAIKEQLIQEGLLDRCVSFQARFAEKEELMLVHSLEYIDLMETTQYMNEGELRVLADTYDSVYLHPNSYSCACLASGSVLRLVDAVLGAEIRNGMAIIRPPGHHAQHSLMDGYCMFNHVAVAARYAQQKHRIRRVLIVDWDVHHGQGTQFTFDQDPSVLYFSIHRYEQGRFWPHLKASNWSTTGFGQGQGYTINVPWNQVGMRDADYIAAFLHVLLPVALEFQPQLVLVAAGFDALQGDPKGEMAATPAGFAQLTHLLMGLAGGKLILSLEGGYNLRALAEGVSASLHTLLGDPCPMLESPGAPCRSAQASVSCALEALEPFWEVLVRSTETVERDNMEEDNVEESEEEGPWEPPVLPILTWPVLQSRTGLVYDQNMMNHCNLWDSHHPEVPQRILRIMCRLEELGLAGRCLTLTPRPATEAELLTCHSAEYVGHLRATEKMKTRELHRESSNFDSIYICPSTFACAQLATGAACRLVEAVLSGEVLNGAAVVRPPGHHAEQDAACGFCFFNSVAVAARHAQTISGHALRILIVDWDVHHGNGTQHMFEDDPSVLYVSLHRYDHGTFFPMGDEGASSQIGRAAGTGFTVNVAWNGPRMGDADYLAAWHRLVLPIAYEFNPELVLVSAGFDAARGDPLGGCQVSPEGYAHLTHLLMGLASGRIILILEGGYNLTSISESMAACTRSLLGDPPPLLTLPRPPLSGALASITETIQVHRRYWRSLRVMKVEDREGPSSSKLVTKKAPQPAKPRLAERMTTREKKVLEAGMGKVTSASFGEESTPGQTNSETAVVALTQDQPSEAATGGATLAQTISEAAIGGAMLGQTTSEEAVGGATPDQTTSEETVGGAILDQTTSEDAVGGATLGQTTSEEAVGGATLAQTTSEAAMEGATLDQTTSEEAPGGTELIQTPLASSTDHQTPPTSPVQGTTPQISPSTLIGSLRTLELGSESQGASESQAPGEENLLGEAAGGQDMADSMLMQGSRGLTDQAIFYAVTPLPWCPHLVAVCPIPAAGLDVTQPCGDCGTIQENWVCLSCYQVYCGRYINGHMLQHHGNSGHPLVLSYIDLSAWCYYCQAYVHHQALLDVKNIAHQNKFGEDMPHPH
Briefly: HDAC enzyme inhibition assay, HDAC6. The data set is classed as biochemical. The settings on record: 10-dose, 3-fold serial dilution starting at 10 μM. The procedure: as §3

The next data set addresses T4, HDAC8 (Homo sapiens, UniProt Q9BY41).
T4 construct: purchased Reaction Biology Corporation, Malvern, PA (contract assay service)
T4 sequence (Q9BY41 1-377): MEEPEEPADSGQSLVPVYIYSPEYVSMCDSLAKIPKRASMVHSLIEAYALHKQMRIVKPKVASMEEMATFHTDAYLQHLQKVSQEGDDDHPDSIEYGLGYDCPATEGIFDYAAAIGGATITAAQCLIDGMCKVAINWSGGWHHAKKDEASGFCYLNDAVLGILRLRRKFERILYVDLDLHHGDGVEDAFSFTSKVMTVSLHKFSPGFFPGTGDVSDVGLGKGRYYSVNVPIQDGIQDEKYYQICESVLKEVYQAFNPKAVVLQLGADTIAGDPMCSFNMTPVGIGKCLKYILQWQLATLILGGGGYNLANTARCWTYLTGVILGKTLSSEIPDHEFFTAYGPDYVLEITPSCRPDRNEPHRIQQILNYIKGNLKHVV
Briefly: HDAC enzyme inhibition assay, HDAC8. The data set is classed as biochemical. The settings on record: 10-dose, 3-fold serial dilution starting at 10 μM. How it is done: as §3

For data set [3], the system named is TMZ-resistant GBM cell lines A172R and PT#3R. Briefly: MTT cytotoxicity assay, TMZ-resistant GBM lines (statement in words). The data set is classed as cell-based. The settings on record: 0 to 80 μM, 72 h. The procedure: as §1
MTT assay was employed to evaluate the cytotoxicity of the synthesized compound against resistant GBM cells. The MTT (3-(4,5-dimethylthiazol-2-yl)-2,5-diphenyltetrazolium bromide, catalog no. AM0818-0005) powder was purchased from BIONOVAS (Ontario, Canada). The MTT was prepared at 10 mg/mL stock with ultrapure water and then stored at −20 °C. […] Finally, 100 μL of the mixture was transferred to measure the OD 595 nm absorbance.
On the technique in general: Formazan colour is commonly taken as a measure of viable cells.

The test system of the next data set is GBM. Details: method as in PMID 31505812. The settings on record: GBM patients, vs 12.7 months; cited from earlier work.
On the set-up of data set [4]: method as in PMID 36921275. The settings on record: meningitis patients; cited from earlier work.
The conditions of data set [5]: within 5–7 h; cited from earlier work.

T2 sequence (Q92769 whole entry): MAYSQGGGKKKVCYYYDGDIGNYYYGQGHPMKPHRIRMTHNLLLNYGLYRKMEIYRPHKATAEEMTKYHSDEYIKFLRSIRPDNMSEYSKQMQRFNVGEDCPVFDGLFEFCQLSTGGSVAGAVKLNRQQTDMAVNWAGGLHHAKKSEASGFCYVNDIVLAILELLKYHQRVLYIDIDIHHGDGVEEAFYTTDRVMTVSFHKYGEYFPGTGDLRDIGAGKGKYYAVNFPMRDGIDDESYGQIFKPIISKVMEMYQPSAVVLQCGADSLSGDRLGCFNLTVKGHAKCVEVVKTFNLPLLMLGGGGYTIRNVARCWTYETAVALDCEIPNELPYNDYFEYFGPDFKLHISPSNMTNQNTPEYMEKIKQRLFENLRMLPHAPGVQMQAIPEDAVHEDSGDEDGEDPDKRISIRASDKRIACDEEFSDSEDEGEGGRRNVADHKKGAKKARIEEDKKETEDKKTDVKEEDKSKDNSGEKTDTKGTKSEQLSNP
T1 sequence (Q13547 whole entry): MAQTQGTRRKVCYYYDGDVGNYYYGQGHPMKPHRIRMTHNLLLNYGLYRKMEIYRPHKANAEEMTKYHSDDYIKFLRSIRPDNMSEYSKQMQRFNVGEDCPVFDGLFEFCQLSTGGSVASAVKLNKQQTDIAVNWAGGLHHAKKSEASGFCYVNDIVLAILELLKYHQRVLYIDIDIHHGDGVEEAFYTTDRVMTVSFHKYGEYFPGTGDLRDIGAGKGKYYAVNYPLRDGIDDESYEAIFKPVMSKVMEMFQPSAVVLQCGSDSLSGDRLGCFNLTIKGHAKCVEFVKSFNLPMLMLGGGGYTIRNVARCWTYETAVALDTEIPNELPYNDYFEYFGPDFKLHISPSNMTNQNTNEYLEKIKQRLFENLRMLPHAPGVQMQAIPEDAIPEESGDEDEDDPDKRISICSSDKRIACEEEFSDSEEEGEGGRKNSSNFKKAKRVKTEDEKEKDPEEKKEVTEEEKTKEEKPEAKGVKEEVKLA

For `O=C(NC[C@H]1CN(c2ccc(N3CCOCC3)c(F)c2)C(=O)O1)c1cc(Cl)ccc1O` [compound 7, (S)-5-Chloro-N-((3-(3-fluoro-4-morpholinophenyl)-2-oxooxazolidin-5-yl)methyl)-2-hydroxybenzamide], the values for the IC50 in data set [1] and in data set [2] were 224 ± 80.3 µM and 52.1 ± 6.26 µM, respectively.
Consider `O=C(/C=C/c1cccc(S(=O)(=O)NC[C@H]2CN(c3ccc(N4CCOCC4)c(F)c3)C(=O)O2)c1)NO` [compound 5, (R,E)-3-(3-(N-((3-(3-Fluoro-4-morpholinophenyl)-2-oxooxazolidin-5-yl)methyl)su-lfamoyl)phenyl)-N-hydroxyacrylamide], for which the IC50 in data set [2] was determined as 124 ± 17.5 µM; on HDAC1, 0.735 µM; against HDAC2 it was 1.66 µM; against HDAC6, 0.095 µM; at HDAC8, 0.803 µM.
Regarding `O=C(CCCCCCC(=O)NC[C@H]1CN(c2ccc(N3CCOCC3)c(F)c2)C(=O)O1)NO` [compound 2, (S)-N1-((3-(3-Fluoro-4-morpholinophenyl)-2-oxooxazolidin-5-yl)methyl)-N8-hydroxyoctanediamide], the IC50 in [2] stood at 164 ± 41.5 µM; at HDAC1 it was 3.37 µM; on HDAC2 it was 6.43 µM; against HDAC6 it was 0.304 µM; against HDAC8 it was 1.11 µM.
Consider `CCN(C[C@H]1CN(c2ccc(N3CCOCC3)c(F)c2)C(=O)O1)C(=O)c1cc(C(C)C)c(O)cc1O` [compound 10, (S)-N-((3-(3-Fluoro-4-morpholinophenyl)-2-oxooxazolidin-5-yl)methyl)-2,4-dihydroxy-5-isopropyl-N-ethylbenzamide], for which the figures for the IC50 in [1] and in data set [2] were 80.6 ± 9.99 µM and 48.8 ± 4.77 µM, respectively.
Take `CC(C)c1cc(C(=O)N(C)C[C@H]2CN(c3ccc(N4CCOCC4)c(F)c3)C(=O)O2)c(O)cc1O` [compound 9, (S)-N-((3-(3-Fluoro-4-morpholinophenyl)-2-oxooxazolidin-5-yl)methyl)-2,4-dihydroxy-5-isopropyl-N-methylbenzamide]: the values for the IC50 in [1] and in data set [2] were 35.6 ± 4.64 µM and 15.3 ± 2.1 µM, respectively. The “cytotoxicity in TMZ-resistant GBM” value in data set [3] is “exhibited the capacity to induce cytotoxicity”.
For the compound `O=C(NO)c1ccc(CNC[C@H]2CN(c3ccc(N4CCOCC4)c(F)c3)C(=O)O2)cc1` [compound 3, (S)-4-((((3-(3-Fluoro-4-morpholinophenyl)-2-oxooxazolidin-5-yl)methyl)amin-o)methyl)-N-hydroxybenzamide], the IC50 in [2] was 114 ± 20.8 µM; against HDAC1, > 10 µM; against HDAC2, > 10 µM; against HDAC6, 0.061 µM; at HDAC8, 0.938 µM.
`Cn1nnc2c(C(N)=O)ncn2c1=O` [TMZ, temozolomide]: in the data set with GBM, the overall survival was 21.7 months.
`CC(C)c1cc(C(=O)NC[C@H]2CN(c3ccc(N4CCOCC4)c(F)c3)C(=O)O2)c(O)cc1O` [compound 8, (S)-N-((3-(3-Fluoro-4-morpholinophenyl)-2-oxooxazolidin-5-yl)methyl)-2,4-dihydroxy-5-isopropylbenzamide]: the IC50 amounted to 65.2 ± 11.2 µM in [1] and 58 ± 6.23 µM in [2].
On to `Nc1ccccc1NC(=O)c1ccc(CNC[C@H]2CN(c3ccc(N4CCOCC4)c(F)c3)C(=O)O2)cc1` [compound 4, (S)-N-(2-Aminophenyl)-4-((((3-(3-fluoro-4-morpholinophenyl)-2-oxooxazolidin-5-yl)methyl)amino)methyl)benzamide], for which the IC50 came out at 19 ± 2.53 µM in data set [1], 41.4 ± 5.01 µM in [2], 0.979 µM against HDAC1 and 2.02 µM at HDAC2. In addition, in data set [3], the “cytotoxicity in TMZ-resistant GBM” value was “exhibited the capacity to induce cytotoxicity”.
For the compound `CC(=O)NC[C@H]1CN(c2ccc(N3CCOCC3)c(F)c2)C(=O)O1` [linezolid, (S)-N-((3-(3-Fluoro-4-morpholinophenyl)-2-oxooxazolidin-5-yl)methyl)acetamide], the “cytotoxicity in resistant GBM cells” value in data set [2] (80 to 100 μM) is given as “did not induce cytotoxicity”. Besides, the “penetration between blood and cerebrospinal fluid” value in [4] is “more than 70%”. The “excreted in its original form in urine” value in [5] was 30%.
